This is an account of results in patent US20230118497A1, “PYRAZOLE-CONTAINING POLYCYCLIC DERIVATIVE INHIBITOR, PREPARATION METHOD THEREFOR AND APPLICATION THEREOF” (Shanghai Hansoh Biomedical Co., Ltd., priority 2019, published 2023).

One assay deals with T1, 1321N1-hP2X3 receptor (Homo sapiens, UniProt P56373).
T1 construct: host or cells: 1321N1
T1 sequence (P56373 1-397): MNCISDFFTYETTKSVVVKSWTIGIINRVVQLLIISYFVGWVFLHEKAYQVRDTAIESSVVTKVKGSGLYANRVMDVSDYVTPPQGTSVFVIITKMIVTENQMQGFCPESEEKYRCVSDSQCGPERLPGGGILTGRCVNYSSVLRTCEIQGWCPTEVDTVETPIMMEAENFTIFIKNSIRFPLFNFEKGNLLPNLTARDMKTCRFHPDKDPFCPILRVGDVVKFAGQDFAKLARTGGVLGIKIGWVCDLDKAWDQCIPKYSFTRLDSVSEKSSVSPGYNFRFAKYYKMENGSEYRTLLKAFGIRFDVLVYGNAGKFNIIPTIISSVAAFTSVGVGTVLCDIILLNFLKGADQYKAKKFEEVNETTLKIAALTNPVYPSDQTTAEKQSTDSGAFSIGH
Description: Calcium ion mobility (FLIPR) in cells stably expressing 1321N1-hP2X3 receptors. It is filed as cell-based. Conditions: calcium signal, agonist at EC80. Here is the method: Test Example 1. Determination of the Effect of the Compounds of the Present Invention on Calcium Ion Mobility in Cells Stably Expressing 1321N1-hP2X3 Receptors
To determine the inhibitory activity of the compounds on 1321N1-hP2X3 receptor.
Stably transfected cell line: 1321N1-hP2X3 (supplied by Shanghai ChemPartner Chemical Research Co., Ltd.).
(§1) Assay buffer: 1*HBSS+20 mM HEPES;
Cell culture medium: DMEM+10% FBS+75 µg/mL Hygromycin B+300 µg/mL G418;
(§2) Plating medium: DMEM+10% DPBS;
(§3) 0.5*Dye: 10*Dye stock+1.25 Probenecid+1*assay buffer+0.5 U/mL ATP hydrolytic enzyme;
(§4) 2. The cells were cultured to 70%-90% confluency in the cell culture medium at 37° C., 5% CO2. The medium was discarded, and the cells were added with 2 mL of Versene, and the cells were placed in an incubator at 37° C. for 2 to 5 min. The cells were collected by addition of 10 mL of plating medium and counted. The cells were seeded to the 384-well assay plate by addition of 50 μL solution (a density of 1×10^4 cells/well) to each well, and incubated for 16 to 24 hours (at least overnight).
(§5) 3. The medium was discarded, and 30 μL of 1× dye was added. The cells were incubated at 37° C. in the dark for 60 min.
(§6) 4. The compound powder was dissolved in DMSO to obtain a 20 mM stock solution. 180× compound with required concentration was formulated, and diluted in gradient for concentration points.
(§7) 5. Preparation of compound plate: 500 nL of 180× compound was transferred to the compound plate (source plate for FLIPR) using ECHO. 30 μL of assay buffer was added to each well, and the plate was shaken gently for 20 to 40 minutes.
(§8) 6. Determination: 15 μL of 3× compound was taken from each well and added to the cell plate. The samples were added by FLIPR instrument, and the calcium signals were detected. After 15 minutes, 22.5 μL of 3× agonist (EC80 concentration) was added to each well and the calcium signals were detected.
(§9) The calcium signal values were determined by FLIPR. The ratio of the 340/510 nm wavelength signals to 380/510 nm wavelength signals was used as the calculated results for each sampling time point in the experiment. The calculation of maximum minus minimum was derived from the ratio signal curve.
(§10) The percent inhibition rate and ten-point concentration data were fitted to the parametric nonlinear logistic equation by using GraphPad prism to calculate the IC50 values of the compounds.

Another assay deals with T2, 1321N1-hP2X2/3 receptor (Homo sapiens, UniProt P56373+Q9UBL9).
T2 construct: host or cells: 1321N1
T2 sequence (P56373 1-397): T1 sequence (P56373 1-397)
T2 sequence (Q9UBL9 1-471): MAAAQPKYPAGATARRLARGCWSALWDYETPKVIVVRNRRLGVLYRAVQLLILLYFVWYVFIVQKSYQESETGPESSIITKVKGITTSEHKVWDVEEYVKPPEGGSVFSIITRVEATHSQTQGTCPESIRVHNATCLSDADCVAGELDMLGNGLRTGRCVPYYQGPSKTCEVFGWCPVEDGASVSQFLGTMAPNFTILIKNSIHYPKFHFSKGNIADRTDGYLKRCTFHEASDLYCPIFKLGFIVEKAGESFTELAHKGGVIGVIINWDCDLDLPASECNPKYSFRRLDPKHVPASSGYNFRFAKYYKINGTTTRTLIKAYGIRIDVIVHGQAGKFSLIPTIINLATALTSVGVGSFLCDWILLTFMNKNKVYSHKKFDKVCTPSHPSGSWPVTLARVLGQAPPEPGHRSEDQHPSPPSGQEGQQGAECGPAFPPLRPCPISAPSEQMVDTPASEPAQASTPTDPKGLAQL
Description: Calcium ion mobility (FLIPR) in cells stably expressing 1321N1-hP2X2/3 receptors. Conditions: calcium signal, agonist at EC80. It is filed as cell-based. How it is done: Test Example 2. Determination of the Effect of the Compounds of the Present Invention on Calcium Ion Mobility in Cells Stably Expressing 1321N1-hP2X2/3 Receptors
To determine the inhibitory activity of the compounds on 1321N1-hP2X2/3 receptor.
Stably transfected cell line: 1321N1-hP2X2/3 (supplied by Shanghai ChemPartner Chemical Research Co., Ltd.).
as §1
Cell culture medium: DMEM+10% FBS+75 μg/mL Hygromycin B+150 μg/mL G418;
as §2, §3, §4, §5, §6, §7, §8, §9, §10

What is called IC50 is the concentration that gives 50% inhibition. Regarding `CC(C)(C)c1cc2n(CC(=O)Nc3ccc(F)cn3)c(=O)c3cccnc3n2n1` [Example 1, 2-(2-(Tert-butyl)-5-oxopyrazolo[1,5-a]pyrido[3,2-e]pyrimidin-4(5H)-yl)-N-(5-fluoropyridin-2-yl)acetamide], the concentration for half-maximal inhibition (IC50) turned out to be 16.2 nM on 1321N1-hP2X3 receptor and 64400 nM on 1321N1-hP2X2/3 receptor.

On to `Cc1cc(-c2cc3n(CC(=O)Nc4ccc(F)cn4)c(=O)c4cccnc4n3n2)c(C)cn1` [Example 21], for which the IC50 on 1321N1-hP2X3 receptor was determined as 305 nM.

Regarding `O=C(Cn1c(=O)c2ccc(C(F)(F)F)nc2n2nc(C3CC3)cc12)Nc1ccc(F)cn1` [Example 35, 2-(2-Cyclopropyl-5-oxo-8-(trifluoromethyl)pyrazolo[1,5-a]pyrido[3,2-e]pyrimidin-4(5H)-yl)-N-(5-fluoropyridin-2-yl)acetamide], the IC50 on 1321N1-hP2X3 receptor is 77.7 nM; at 1321N1-hP2X2/3 receptor, above 30000 nM.

For `CC(C)c1cc2n(CC(=O)Nc3ccc(F)cn3)c(=O)c3ccc(C(F)(F)F)nc3n2n1` [Example 36, N-(5-Fluoropyridin-2-yl)-2-(2-isopropyl-5-oxo-8-(trifluoromethyl)pyrazolo[1,5-a]pyrido[3,2-e]pyrimidin-4(5H)-yl)acetamide], the IC50 on 1321N1-hP2X3 receptor worked out at 185 nM.

For the compound `O=C(Cn1c(=O)c2ccc(C(F)(F)F)nc2n2nc(C3CCCC3)cc12)Nc1ccc(F)cn1` [Example 37, 2-(2-Cyclopentyl-5-oxo-8-(trifluoromethyl)pyrazolo[1,5-a]pyrido[3,2-e]pyrimidin-4(5H)-yl)-N-(5-fluoropyridin-2-yl)acetamide], the IC50 at 1321N1-hP2X3 receptor is 337 nM.

As to `Cc1cc(-c2cc3n(CC(=O)Nc4ccc(F)cn4)c(=O)c4ccc(C(F)(F)F)nc4n3n2)c(C)cn1` [Example 40], the values for the IC50 on 1321N1-hP2X3 receptor and at 1321N1-hP2X2/3 receptor were 292 nM and 16700 nM, respectively.

Regarding `CC1(c2cc3n(CC(=O)Nc4ccc(F)cn4)c(=O)c4ccc(C(F)(F)F)nc4n3n2)CC1` [Example 59, N-(5-Fluoropyridin-2-yl)-2-(2-(1-methylcyclopropyl)-5-oxo-8-(trifluoromethyl)pyrazolo[1,5-a]pyrido[3,2-e]pyrimidin-4(5H)-yl)acetamide], the values for the half-inhibitory concentration (IC50) at 1321N1-hP2X3 receptor and at 1321N1-hP2X2/3 receptor were 259 nM and 32200 nM, respectively.

On to `O=C(Cn1c(=O)c2ccc(C(F)(F)F)nc2n2nc(C3CCCCC3)cc12)Nc1ccc(F)cn1` [Example 62, 2-(2-Cyclohexyl-5-oxo-8-(trifluoromethyl)pyrazolo[1,5-a]pyrido[3,2-e]pyrimidin-4(5H)-yl)-N-(5-fluoropyridin-2-yl)acetamide], for which, on 1321N1-hP2X3 receptor, the 50% inhibitory concentration (IC50) was 385 nM.

On to `Cc1cnccc1-c1cc2n(CC(=O)Nc3ccc(F)cn3)c(=O)c3ccc(C(F)(F)F)nc3n2n1` [Example 63, N-(5-Fluoropyridin-2-yl)-2-(2-(3-methylpyridin-4-yl)-5-oxo-8-(trifluoromethyl)pyrazolo[1,5-a]pyrido[3,2-e]pyrimidin-4(5H)-yl)acetamide], for which, at 1321N1-hP2X3 receptor, the IC50 was determined as 238 nM.

For `Cc1ncccc1-c1cc2n(CC(=O)Nc3ccc(F)cn3)c(=O)c3ccc(C(F)(F)F)nc3n2n1` [Example 64, N-(5-Fluoropyridin-2-yl)-2-(2-(2-methylpyridin-3-yl)-5-oxo-8-(trifluoromethyl)pyrazolo[1,5-a]pyrido[3,2-e]pyrimidin-4(5H)-yl)acetamide], the half-inhibitory concentration (IC50) at 1321N1-hP2X3 receptor was found to be 149 nM.

With `O=C(Cn1c(=O)c2ccc(C(F)(F)F)nc2n2nc(C(F)(F)F)cc12)Nc1ccc(F)cn1` [Example 66, N-(5-Fluoropyridin-2-yl)-2-(5-oxo-2,8-bis(trifluoromethyl)pyrazolo[1,5-a]pyrido[3,2-e]pyrimidin-4(5H)-yl)acetamide], the IC50 on 1321N1-hP2X3 receptor was 130 nM.

For `O=C(Cn1c(=O)c2ccc(C(F)(F)F)nc2n2nc(C(=O)N3CCC3)cc12)Nc1ccc(F)cn1` [Example 74, 2-(2-(Azetidine-1-carbonyl)-5-oxo-8-(trifluoromethyl)pyrazolo[1,5-a]pyrido[3,2-e]pyrimidin-4(5H)-yl)-N-(5-fluoropyridin-2-yl)acetamide], the 50% inhibitory concentration (IC50) at 1321N1-hP2X3 receptor was 203 nM.

Take `O=C(Cn1c(=O)c2ccc(C(F)(F)F)nc2n2nc(Cl)cc12)Nc1ccc(F)cn1` [Example 79, 2-(2-Chloro-5-oxo-8-(trifluoromethyl)pyrazolo[1,5-a]pyrido[3,2-e]pyrimidin-4(5H)-yl)-N-(5-fluoropyridin-2-yl)acetamide]: the half-inhibitory concentration (IC50) on 1321N1-hP2X3 receptor was determined as 34.7 nM.

With `O=C(Cn1c(=O)c2ccc(C(F)(F)F)nc2n2nccc12)Nc1ccc(Cl)cn1` [Example 83, N-(5-Chloropyridin-2-yl)-2-(5-oxo-8-(trifluoromethyl)pyrazolo[1,5-a]pyrido[3,2-e]pyrimidin-4(5H)-yl)acetamide], the IC50 was 137 nM at 1321N1-hP2X3 receptor and above 30000 nM at 1321N1-hP2X2/3 receptor.
